Drawing on the Deep4Chem optical property database, this text covers emission maximum for 55 molecules.

Structures are written as SMILES.

The data set in a line: solvent given as SMILES.

`CN(C)c1ccc(/C=C/c2nc3ccc(N(C)C)cc3oc2=O)cc1`: the emission maximum is, setting by setting: (in C1CCCCC1) 521 nm; (in C1COCCO1) 581 nm; (in CC#N) 650 nm; (in CC(C)=O) 626 nm; (in CC(O)CO) 649.5 nm; (in CCCCCCC) 519 nm. Further, the emission maximum reads like this: (in CCO) 666 nm; (in CCOC(C)=O) 587 nm; (in CN(C)C=O) 650 nm; (in CS(C)=O) 666 nm; (in Cc1ccccc1) 567 nm; (in ClC(Cl)Cl) 627 nm. In addition, the emission maximum reads like this: (in ClCCl) 619 nm; (in OCC(O)CO) 659 nm. The molecule `c1ccc(-c2ccc(-c3ccc4c(c3)CCO4)cc2)cc1` showed an emission maximum (in C1CCCCC1) of 377 nm. As for `Cc1cc2ccc(-c3cccc4cccc(-c5ccc6cc(C)c(=O)oc6c5)c34)cc2oc1=O`, the emission maximum runs as follows: (in C1CCCCC1) 392 nm; (in C1COCCO1) 399 nm; (in CC#N) 420 nm; (in CCO) 442 nm; (in CCOC(C)=O) 403 nm; (in CN(C)C=O) 417 nm. Moreover, the emission maximum by setting is: (in CO) 452 nm; (in c1ccccc1) 398 nm. Turning to `C/C=C/c1cccc(OC)c1`, the emission maximum was 327 nm (in CC#N) and 325 nm (in CCCCCC).

As for `CCN(CC)c1ccc(-n2cccc2)cc1`, the emission maximum turned out to be 337 nm (in CC#N) and 326 nm (in CCCCCC). `CC(C)Nc1cc2c(cc1F)c(=O)c1cc(F)c(NC(C)C)cc1n2C` displayed an emission maximum (in CCO) of 421 nm. With `c1ccc(-c2nc(-c3ccc(-c4ccc(-c5nc(-c6ccccc6)c(-c6ccccc6)o5)cc4)cc3)oc2-c2ccccc2)cc1`, under “in C1COCCO1”, the emission maximum was 428 nm. The molecule `CN(C)C1=Nc2cccc3cccc1c23` came in with an emission maximum (in CC#N) of 589 nm. As to `Cc1c(COC(=O)Cc2c[nH]c3ccccc23)n2c(OCC(=O)Cc3c[nH]c4ccccc34)c(C)c(=O)n2c1=O`, the emission maximum (in CCO) is listed as 452 nm.

The molecule `CCOC(=O)c1cc(C(=O)OCC)c2cc(N(C)C)ccc2n1` gave an emission maximum (in CCO) of 564 nm.

Turning to `Nc1ccc2ccc(O)cc2c1`, under “in O”, the emission maximum came out at 398 nm. In turn, `c1cc2ccc3ccc4cc3c2cc1CCCCCCc1ccc2ccc3ccc-4cc3c2c1` returned an emission maximum (in Cc1ccccc1) of 376 nm. `CC/[NH+]=c1\cc2oc3cc(NCCN)c4ccccc4c3nc-2cc1C`: the emission maximum is recorded as 647 nm (in CCO) and 647 nm (in O). `COC(=O)C1=C(C(=O)OC)C2(c3ccccc3-c3ccccc32)[C@@H](c2ccccc2)C=C2c3cc(OC)c(OC)cc3CCN21` registered an emission maximum (in ClCCl) of 431 nm. Where the note is “in CC#N”, `FC(F)(F)c1ccc(-c2pc3ccccc3s2)cc1` (stereo not drawn) yielded an emission maximum of 430 nm. Under “in ClCCl”, `CCOC(=O)c1c(-c2cc3cc4c(cc3oc2=O)OC(C)(C)CC4)nn(-c2cccc(C)c2)c1C(=O)OCC` showed an emission maximum of 428 nm. In the case of `C[N+]1=C(/C=C/C=C2/N(CCC[N+](C)(C)C)c3ccc(S(=O)(=O)[O-])cc3C2(C)C)C(C)(C)c2ccccc21`, the emission maximum (in CS(C)=O) was found to be 570 nm. Regarding `CC(C)(C)NC(=O)c1cccc2ccc3c4ccc(Cl)cc4c4cc(Cl)ccc4c3c12`, the emission maximum (in ClCCl) turned out to be 415 nm. With `N#Cc1c(-n2c3ccccc3c3ccccc32)c(-n2c3ccccc3c3ccccc32)c(C#N)c(-n2c3ccccc3c3ccccc32)c1-n1c2ccccc2c2ccccc21`, the emission maximum (in Cc1ccccc1) was found to be 535 nm.

For the molecule `C(=C\c1ncc2ccccc2n1)/c1ccc(N(c2ccccc2)c2ccccc2)cc1`, the emission maximum (in C1CCCCC1) came to 449 nm; the emission maximum (in C1CCOC1) is given as 498 nm; the emission maximum (in CC#N) is given as 543 nm; the emission maximum (in CS(C)=O) is reported as 547 nm; the emission maximum (in ClCCl) is listed as 520 nm. `CN(C)c1ccc(-c2cc3c(ccc4c([N+](=O)[O-])cccc43)c(=O)o2)cc1`: the emission maximum is, setting by setting: (in CC(C)=O) 530 nm; (in CCOC(C)=O) 624 nm; (in CN(C)C=O) 546 nm; (in CO) 548 nm; (in ClC(Cl)Cl) 634 nm. Turning to `C(=C(c1ccccc1)c1ccccc1)c1ccc(C=C(c2ccccc2)c2ccccc2)cc1`, where the note is “in C1CCOC1”, the emission maximum is 461 nm. `CC(C)c1cc(C(C)C)c(B2c3ccccc3Oc3cc(N4c5ccccc5C(C)(C)c5ccccc54)ccc32)c(C(C)C)c1` gave an emission maximum (in Cc1ccccc1) of 475 nm.

The molecule `Cc1ccc2nc3[nH]c(=O)[nH]c(=O)c3nc2c1C` gave an emission maximum (in CC#N) of 469 nm.

In the case of `COc1cccc(OC)c1-c1c2ccc(=[N+]3CCNCC3)cc-2oc2cc(N3CCNCC3)ccc12`, the emission maximum is on record as 582 nm (in CCO) and 568 nm (in O). `C(#Cc1ccccc1)C(C#Cc1ccccc1)=Cc1cccc(C=C(C#Cc2ccccc2)C#Cc2ccccc2)c1` displayed an emission maximum (in ClC(Cl)Cl) of 413 nm. `Cc1cc(C)c(B(c2ccsc2-c2sccc2P(=O)(c2ccccc2)c2ccccc2)c2c(C)cc(C)cc2C)c(C)c1` returned an emission maximum (in CO) of 512 nm. Consider `CCc1c(C)c2n(c1C)[B-](F)(F)[N+]1=C(c3ccc[nH]3)c3ccccc3C1=C2`, for which the emission maximum was found to be 631 nm (in C1CCOC1); 628 nm (in CC#N); 626 nm (in CCCCCC); 628 nm (in CO); 635 nm (in Cc1ccccc1); 634 nm (in ClCCl). As to `COc1ccc(C(=Cc2ccc(/C=C(\C#N)c3ccccc3)cc2)c2ccc(OC)cc2)cc1`, the emission maximum (in C1CCOC1) turned out to be 510 nm. As for `c1ccc(-c2nc(-c3ccc(N4c5ccccc5C(c5ccccc5)(c5ccccc5)c5ccccc54)cc3)cc(-c3ccccn3)n2)cc1`, the emission maximum is, setting by setting: (in Cc1ccccc1) 460 nm; (in O=P(c1ccccc1)(c1ccccc1)c1ccccc1Oc1ccccc1P(=O)(c1ccccc1)c1ccccc1) 468 nm.

Molecule `Cc1ccc(N(C)C)cc1C1=C2C=CC(=[N+](C)C)C=C2[Si](C)(C)c2cc(N(C)C)ccc21` came in with an emission maximum (in O) of 662 nm. Consider `F[B-]1(F)OC(c2ccc(C(F)(F)F)cc2)=Cc2ccc3ccccc3[n+]21`, for which, under “in ClC(Cl)Cl”, the emission maximum was found to be 434 nm. As to `Cc1ccc2nc(-c3cc(-c4nc5ccc(C)cc5[nH]4)cc(-c4nc5ccc(C)cc5[nH]4)c3)[nH]c2c1`, the emission maximum (in CS(C)=O) is reported as 386.5 nm. For `c1ccc2c3c(ccc2c1)-c1cccc2cc4ccccc4c-3c12`, the emission maximum (in CCCCCCC) is on record as 610 nm. The molecule `F[B-]1(F)N(c2ccccc2)c2cccc3ccc4ccc[n+]1c4c23` showed an emission maximum (in ClCCl) of 584 nm. With `Cc1ccc(C(=O)OCc2ccc3c4cccc5cccc(c6cccc2c63)c54)cc1`, for the setting “in CCO”, the emission maximum is given as 445 nm. With `F[B-]1(F)OC(c2ccc(Br)cc2)=Cc2c3ccccc3cc[n+]21`, under “in ClC(Cl)Cl”, the emission maximum stood at 466.4 nm. In turn, `CCn1c2c(-c3ccc(-c4cccs4)s3)cc(C(C)(C)C)cc2c2cc(C(C)(C)C)cc(-c3ccc(-c4cccs4)s3)c21` returned an emission maximum (in ClCCl) of 440 nm. In turn, `Fc1ccccc1-c1nc2sc3ccccc3c2s1` came in with an emission maximum (in CS(C)=O) of 407 nm. In turn, `CCCCCCCCOc1ccc(C#Cc2ccc3oc4ccccc4c3c2)c(OCCCCCCCC)c1` came in with an emission maximum (in ClCCl) of 373 nm. The same measure, in the same setting: as for `C1=CC2C=c3c(cc4cccc5cc6ccccc6c3c45)C3=c4ccccc4=CC(=C1)C32` (stereo not drawn), the figure is 683 nm.

For the molecule `Cc1cc(=O)oc2c1cc(Br)c1occ(C)c12`, the emission maximum amounted to 400 nm (in C1CCCCC1); 407 nm (in C1COCCO1); 413 nm (in CC#N); 416 nm (in CCO); 426 nm (in OCC(F)(F)F). Molecule `COc1ccc(N(c2ccc(OC)cc2)c2ccc(-c3ccc(C=C(C#N)C#N)cc3)cc2)cc1` displayed an emission maximum (in ClC(Cl)Cl) of 696 nm. For `Nc1ncnc2c1c(C#Cc1ccc3ccccc3c1)cn2[C@H]1C[C@H](O)[C@@H](CO)O1`, the emission maximum was determined as 400 nm (in CC#N); 371 nm (in CCO); 383 nm (in CCOC(C)=O); 377 nm (in CO); 374 nm (in ClC(Cl)Cl). As for `CN(C)c1ccc(C2=Nc3scc(-c4ccc(N(C)C)cc4)[n+]3[B-](F)(F)O2)cc1`, the emission maximum is, setting by setting: (in C1CCOC1) 616 nm; (in Cc1ccccc1) 518 nm; (in ClCCl) 590 nm. Take `CCC(C)(C)c1ccc2c(c1)C(CCOC)(CCOC)c1cc(-c3ccc(-c4ccc5c(c4)C(CCOC)(CCOC)c4cc(C(C)(C)CC)ccc4-5)cc3)ccc1-2`: the emission maximum (in C1CCCCC1) is on record as 380 nm. The molecule `CC(C)(C)c1cc(-n2c(-c3ccc(C(=C(c4ccccc4)c4ccccc4)c4ccccc4)cc3)cc3c2cc(-c2ccc(C(=C(c4ccccc4)c4ccccc4)c4ccccc4)cc2)n3-c2cc(C(C)(C)C)cc(C(C)(C)C)c2)cc(C(C)(C)C)c1` yielded an emission maximum (in ClCCl) of 586 nm.

Turning to `CCC1=C(C)C2C(c3ccc(-c4ccc(-c5nc6c7ccccc7c7ccccc7c6n5-c5ccc(C(C)(C)C)cc5)cc4)cc3)c3c(C)c(CC)c(C)n3[B-](F)(F)[N+]2=C1C` (stereo not drawn), the emission maximum (in ClC(Cl)Cl) came out at 556 nm. On to `CC(C)(C)c1ccc2c(c1)c1cc(C(C)(C)C)ccc1n2-c1cccs1`, for which, under “in ClCCl”, the emission maximum amounted to 368 nm.

With `c1ccc(-c2ccc(-c3ccccc3)cc2)cc1`, the emission maximum is, setting by setting: (in C1CCOC1) 340 nm; (in C1COCCO1) 342 nm; (in CCO) 375 nm. For the molecule `Cc1cc(C)c(C2=C3C=CC=[N+]3[B-]3(c4cccc5ccccc45)Oc4cc(O)cc5c6ccc(C)cc6c6cc2n3c6c45)c(C)c1` (stereo not drawn), the emission maximum (in ClC(Cl)Cl) was 669 nm. Consider `NCCc1c[nH]c2ccc(O)cc12`, for which the emission maximum by setting is: (in CC#N) 332 nm; (in CC(C)O) 335 nm; (in CO) 334 nm; (in O) 337 nm.

`C(#Cc1cnc(C#Cc2ccccc2)nc1)c1ccccc1` registered an emission maximum (in C1CCCCC1) of 425 nm. The molecule `CCCCC(CC)COc1ccc2nc(-c3ccc(-c4ccccc4)s3)sc2c1` (stereo not drawn) came in with an emission maximum (in ClCCl) of 423 nm. Where the note is “in CS(C)=O”, `O=[N+]([O-])c1ccc(N/C=C/C=[NH+]c2ccc([N+](=O)[O-])cc2)cc1` came in with an emission maximum of 508 nm.
